This is an account of results in paper PMC4234439 (Journal of Medicinal Chemistry, 2014).

Some results are limits rather than exact numbers.

Series [1] deals with P. falciparum strain TM90-C2B (chloroquine, mefloquine, pyrimethamine, and atovaquone resistant). The series is described as follows: microbe, parasite or virus in culture. Particulars: Plasmodium falciparum, TM90, read-out: EC50 (nM) TM90-C2B.
The test system of another series is P. berghei-GFP parasites. Type of series: in vivo, Plasmodium berghei. The conditions noted are these: for animals cured: Thompson test, 10 mg/kg, five mice per group.
Series [2] is described as follows: human liver microsomal stability. Particulars: liver microsomes, intrinsic clearance (CLint). Type of series: in vitro ADME.
A short description of series [3]: plasma protein binding by ultracentrifugation. It counts as in vitro ADME. The conditions noted are these: 37 °C.
A short description of series [4]: plasma exposure in Swiss mice. Type of series: in vivo, Swiss outbred mice. The conditions noted are these: oral 10 mg/kg, PEG400 suspension, comparison in words.

`COc1cc2[nH]c(C)c(-c3ccc(N4CCN(C)CC4)nc3)c(=O)c2cc1Cl` [Compound 24, 6-Chloro-7-methoxy-2-methyl-3-(6-(4-methylpiperazin-1-yl)pyridin-3-yl)quinolin-4(1H)-one]: in series [1], the EC50 is no less than 536 nM. As for `COc1cc2[nH]c(C)c(-c3ccc(Oc4ccc(OC(F)(F)F)cc4)cc3C)c(=O)c2cc1Cl` [Compound 62, 6-Chloro-7-methoxy-2-methyl-3-(2-methyl-4-(4-(trifluoromethoxy)phenoxy)phenyl)-quinolin-4(1H)-one], the animals cured entry in the series with P. berghei-GFP parasites is reported as “two out of five”.

Turning to `COc1cc2[nH]c(C)c(-c3cc4ccccc4s3)c(=O)c2cc1Cl` [Compound 30, 3-(Benzo[b]thiophen-2-yl)-6-chloro-7-methoxy-2-methylquinolin-4(1H)-one], the EC50 in series [1] lay within 24.8 to 138 nM. `COc1cc2[nH]c(C)c(-c3ccncc3)c(=O)c2cc1Cl` [Compound 21, 6-Chloro-7-methoxy-2-methyl-3-(pyridin-4-yl)quinolin-4(1H)-one] had a microsomal CLint at 1 μM in series [2] of less than 15 µL/min/mg. Consider `COc1cc2[nH]c(C)c(-c3ccc(Oc4ccc(OC(F)(F)F)cc4)cc3F)c(=O)c2cc1Cl` [Compound 7], for which the “binding to plasma proteins” value in series [3] is given as greater than 99%. Besides, in series [4], the plasma exposure result is on record as “highest exposure”.

As to `O=C1C(O)=C([C@H]2CC[C@H](c3ccc(Cl)cc3)CC2)C(=O)c2ccccc21` [atovaquone, reference compound], the “survival” value with P. berghei-GFP parasites (days survived beyond untreated control, 50 mg/kg p.o. days 3–5 PE) is given as 23 days. In the case of `COc1cc2[nH]c(C)c(-c3ccc(-c4ccc(OC(F)(F)F)cc4)nc3)c(=O)c2cc1Cl` [Compound 67, 6-Chloro-7-methoxy-2-methyl-3-(6-(4-(trifluoromethoxy)phenyl)pyridin-3-yl)quinolin-4(1H)-one], in the series on P. berghei-GFP parasites, the animals cured result is “cured all the mice”. For the same compound, in series [4], the plasma exposure entry is on record as “slightly lower exposure”. `COc1cc2[nH]c(C)c(-c3cccnc3)c(=O)c2cc1Cl` [Compound 20, 6-Chloro-7-methoxy-2-methyl-3-(pyridin-3-yl)quinolin-4(1H)-one]: the microsomal CLint at 1 μM in series [2] is less than 15 µL/min/mg. For the compound `COc1cc2[nH]c(C)c(-c3ccc(Oc4ccccc4)cc3)c(=O)c2cc1Cl` [Compound 46, 6-Chloro-7-methoxy-2-methyl-3-(4-phenoxyphenyl)quinolin-4(1H)-one], the microsomal CLint at 1 μM in series [2] was found to be 19 µL/min/mg. `COc1cc2[nH]c(C)c(-c3ccc(-c4ccc(C(F)(F)F)cc4F)nc3)c(=O)c2cc1Cl` [Compound 66, 6-Chloro-3-(6-(2-fluoro-4-(trifluoromethyl)phenyl)pyridin-3-yl)-7-methoxy-2-methylquinolin-4(1H)-one]: the plasma exposure entry in series [4] is “slightly lower exposure”.

As for `COc1cc2[nH]c(C)c(-c3ccc(C(F)(F)F)cc3)c(=O)c2cc1Cl` [Compound 52, 6-Chloro-7-methoxy-2-methyl-3-(4-(trifluoromethyl)phenyl)quinolin-4(1H)-one], the plasma exposure result in series [4] was “substantially lower”.
